Data from patent US11834414B2, “1-methyl-4-[(4-phenylphenyl)sulfonylmethyl]cyclohexyanol and 1-methyl-4-[[4-(2-pyridyl)phenyl]sulfonylmethyl]cyclohexanol compounds and their therapeutic use” (Modern Biosciences Limited, priority 2018, dated 2023).

Columns and labels:
[1] = system: collagen-induced arthritis in DBA/1j mice; experiment: Mouse Collagen-Induced Arthritis; type: in vivo; details: 10 mg/kg/day, once daily for 14 days, arthritic index vs control
Protocol: Seven- to eight-week-old male DBA/1j mice were used for all procedures. Animals were housed in groups of 10, and were maintained at 21° C.±2° C. on a 12-hour light/dark cycle with food and water ad libitum. Complete Freund's adjuvant (CFA) was prepared by emulsifying bovine type II collagen at 4 mg/mL with a 4 mg/mL suspension of Mycobacterium tuberculosis H37Ra in Incomplete Freund's Adjuvant (IFA) (0.85 mL paraffin oil and 0.15 mL mannide monooleate) in a 1:1 (v/v) ratio. All mice were immunised subcutaneously with 200 μg of bovine type II collagen in CFA. 21 days later, all mice were immunised subcutaneously with 100 μg of bovine type II collagen in IFA. The mice started to develop signs and symptoms of arthritis following the ‘booster’ immunisation.
For macroscopic assessment of arthritis, the following signs were monitored in each paw of each mouse three times per week and summed to generate the Arthritic Index (AI) (the maximum AI for one animal is 16): • 0=no visible effects of arthritis. • 1=oedema and/or erythema of 1 digit. • 2=oedema and/or erythema of 2 digits. • 3=oedema and/or erythema of more than 2 digits. • 4=severe arthritis of entire paw and digits.
Animals were sorted into treatment groups with a mean arthritic index of 2.5 and then dosed once daily for 14 days with compound: by oral gavage for test compounds, or by subcutaneous injection at a dose of 10 mg/kg for the positive control, etanercept. After completion of the experiment, the mice were sacrificed.
The data were analysed by generating an average of the arthritic index across each treatment group. The mean arthritic index was then compared to the arthritic index of control (untreated) animals using the following formula to generate a percentage inhibition of disease.

[2] = biological target: CYP2C19 (Homo sapiens (Human), UniProt P33261); experiment: Human Cytochrome P450 Inhibition Assay (Bactosomes); type: in vitro ADME; details: recombinant Bactosomes, 10 minutes, 37° C.
CYP2C19, sequence (P33261 whole entry): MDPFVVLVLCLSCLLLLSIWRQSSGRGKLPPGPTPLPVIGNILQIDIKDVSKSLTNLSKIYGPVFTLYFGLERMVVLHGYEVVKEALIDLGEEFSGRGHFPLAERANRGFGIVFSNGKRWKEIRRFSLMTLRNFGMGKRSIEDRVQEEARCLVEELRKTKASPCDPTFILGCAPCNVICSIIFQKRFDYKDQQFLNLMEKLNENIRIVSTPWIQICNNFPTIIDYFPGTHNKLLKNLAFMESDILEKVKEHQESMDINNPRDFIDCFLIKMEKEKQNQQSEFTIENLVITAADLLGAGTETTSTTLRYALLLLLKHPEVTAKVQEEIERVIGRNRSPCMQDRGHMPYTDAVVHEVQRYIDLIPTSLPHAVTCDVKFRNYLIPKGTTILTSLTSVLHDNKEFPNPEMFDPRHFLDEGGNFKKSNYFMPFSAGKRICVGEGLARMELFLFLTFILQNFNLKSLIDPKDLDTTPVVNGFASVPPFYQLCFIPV

[3] = system: human hepatocytes; experiment: Human hepatocyte stability; type: in vitro ADME; details: human hepatocytes, 1 μM, 60 minute incubation
Protocol: (§1) Metabolic stability of test compounds was measured by determination of the rate of disappearance of the compound when incubated in the presence of rat or human hepatocytes, a primary source of the most important enzymes (cytochrome P450s) involved in drug metabolism. Study of drug stability in the presence of primary hepatocytes is accepted as a valuable model permitting rapid prediction of in vivo drug stability.
(§2) Rat or human hepatocytes were obtained from a commercial source and viability was assessed using a trypan blue solution prior to use. Test compounds (final concentration 1 μM, 0.1% DMSO, 0.9% acetonitrile) or a marker (diclofenac or diltiazem, final assay concentration 1 μM, 0.1% DMSO, 0.9% acetonitrile) were incubated with pooled hepatocytes for a 60 minute period and samples removed at up to 6 time points and analysed by LC-MS/MS for the presence/amount of test compounds.
(§3) Each compound was incubated for 0, 5, 15, 30, 45, or 60 minutes. The reactions were stopped by the addition of methanol containing an internal standard (1 μM Tolbutamide) at the appropriate time points, mixed and placed at −20° C. for ≥1 hour to quench and allow protein to precipitate. All samples were centrifuged (2500×g, 20 minutes, 4° C.). The aliquots were analysed using LC-MS/MS. Reactions were performed in duplicate at 37° C.
(§4) Data were processed, and the results plotted as In(concentration) vs. time. The elimination rate constant (slope of the regression line, k) was calculated using the following formula, where C(t) is the concentration at time t and C(0) is the starting concentration:
(§5) The half-life (t1/2) was calculated using the following formula: […]
(§6) The intrinsic clearance (CIint) was calculated using the following formula, where [cell] is the hepatocyte concentration in the assay: […]

[4] = system: Thp1 human monocytic cells; experiment: Thp1 Monocyte ATP Production Assay; type: cell-based; details: Thp1 cells, 24 hour incubation, ATPLite; 9-point range 10 μM to 10 nM, mean of 2 independent experiments
Protocol: In vitro potency of test compounds was determined by incubation with Thp1 human monocytic cells and subsequent determination of Adenosine TriPhosphate (ATP) levels using firefly luciferase.
ATP is present in all metabolically active cells. When cells lose integrity, their ability to synthesise ATP is rapidly lost. […] See, e.g., Kang et al., 2015; Jiang et al., 2013. Levels of ATP can be monitored using a system based on firefly (Photinus pyralis) luciferase (see, e.g., Auld et al., 2009) using commercially available kits. A system known as
ATPlite™ was using to measure effects of the test compounds on cellular viability in vitro. This one-step assay system is an adenosine triphosphate (ATP) monitoring system based on the production of light caused by the reaction of ATP from the cells with added luciferase and D-luciferin, as illustrated in the reaction scheme below:
The emitted light is proportional to the ATP concentration.
Thp1 cells were plated at 112500 cells per well in 125 μL RPMI-1640 (no glucose) with 1% FBS in 96-well plates. Test compounds were prepared as 100 mM solutions in DMSO. These stock solutions were diluted in DMSO and then diluted 1000× in culture medium (RPMI) before being added directly to the wells so as to give the desired final compound concentration. After a 24 hour incubation at 37° C./5% CO2, ATPLite™ (Perkin Elmer) was added to each well (1:10 v/v, 10 μL). The plate was then incubated at room temperature for 5 minutes and the emitted light was quantified on Viewlux with a measurement time of 0.3 seconds and binning 4×4.
The average results for each test compound were expressed as a percent (%) of the average control value reflecting cell viability. The average values across the concentrations tested were then plotted and the IC50 for was calculated by fitting the data to a 4-parameter IC50 equation using software from Graf it (Erithacus Software). Each experiment was repeated twice and the data are presented as the mean IC50 from both experiments.

[5] = biological target: CYP1A2 (Homo sapiens (Human), UniProt P05177); experiment: Human Cytochrome P450 Inhibition Assay (Bactosomes)
CYP1A2, sequence (P05177 whole entry): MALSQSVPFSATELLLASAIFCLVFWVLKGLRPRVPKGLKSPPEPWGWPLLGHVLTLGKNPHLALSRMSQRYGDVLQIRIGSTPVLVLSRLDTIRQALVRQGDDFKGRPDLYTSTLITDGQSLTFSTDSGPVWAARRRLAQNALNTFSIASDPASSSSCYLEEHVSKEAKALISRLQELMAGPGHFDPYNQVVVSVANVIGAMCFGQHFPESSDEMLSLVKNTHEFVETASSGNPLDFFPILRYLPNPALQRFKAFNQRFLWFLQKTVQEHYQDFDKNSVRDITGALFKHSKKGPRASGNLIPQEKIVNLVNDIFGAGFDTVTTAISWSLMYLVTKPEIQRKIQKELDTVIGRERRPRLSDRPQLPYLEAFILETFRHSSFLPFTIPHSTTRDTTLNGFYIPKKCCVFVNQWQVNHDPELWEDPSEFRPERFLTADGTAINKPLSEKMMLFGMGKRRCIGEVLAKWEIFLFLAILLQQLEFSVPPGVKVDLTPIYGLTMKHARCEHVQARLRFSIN

[6] = biological target: CYP2D6 (Homo sapiens (Human), UniProt P10635); experiment: as above; type: in vitro ADME; details: recombinant Bactosomes, 10 minutes, 37° C.
CYP2D6, sequence (P10635 whole entry): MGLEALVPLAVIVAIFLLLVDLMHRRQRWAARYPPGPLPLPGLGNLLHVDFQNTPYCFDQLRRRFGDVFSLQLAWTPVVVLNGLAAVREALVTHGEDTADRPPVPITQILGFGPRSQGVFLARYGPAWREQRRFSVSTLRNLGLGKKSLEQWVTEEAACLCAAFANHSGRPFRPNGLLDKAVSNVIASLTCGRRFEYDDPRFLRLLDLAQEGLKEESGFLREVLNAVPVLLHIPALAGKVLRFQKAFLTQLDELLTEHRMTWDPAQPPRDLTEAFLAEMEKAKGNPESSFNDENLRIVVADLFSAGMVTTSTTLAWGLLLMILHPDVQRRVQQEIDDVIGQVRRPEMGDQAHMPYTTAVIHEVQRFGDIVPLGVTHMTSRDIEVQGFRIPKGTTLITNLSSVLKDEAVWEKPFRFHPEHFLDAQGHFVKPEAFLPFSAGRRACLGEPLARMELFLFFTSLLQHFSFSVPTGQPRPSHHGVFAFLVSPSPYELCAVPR

[7] = biological target: CYP3A4 (Homo sapiens (Human), UniProt P08684); experiment: as above; type: in vitro ADME; details: recombinant Bactosomes, 10 minutes, 37° C.
CYP3A4, sequence (P08684 whole entry): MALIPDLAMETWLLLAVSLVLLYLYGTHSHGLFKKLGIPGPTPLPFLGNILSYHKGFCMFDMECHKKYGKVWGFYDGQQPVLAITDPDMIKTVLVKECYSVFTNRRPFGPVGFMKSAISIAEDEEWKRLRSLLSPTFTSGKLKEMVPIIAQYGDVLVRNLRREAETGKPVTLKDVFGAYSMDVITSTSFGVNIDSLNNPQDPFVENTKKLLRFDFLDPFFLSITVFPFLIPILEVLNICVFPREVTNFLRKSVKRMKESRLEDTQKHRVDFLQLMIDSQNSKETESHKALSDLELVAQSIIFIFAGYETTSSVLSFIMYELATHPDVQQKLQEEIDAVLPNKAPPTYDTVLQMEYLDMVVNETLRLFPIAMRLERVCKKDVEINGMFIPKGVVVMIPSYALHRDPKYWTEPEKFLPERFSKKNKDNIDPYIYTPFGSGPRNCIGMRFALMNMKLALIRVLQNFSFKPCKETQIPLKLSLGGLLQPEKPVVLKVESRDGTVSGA

[8] = biological target: CYP2C9 (Homo sapiens (Human), UniProt P11712); experiment: as above; type: in vitro ADME; details: recombinant Bactosomes, 10 minutes, 37° C.
CYP2C9, sequence (P11712 whole entry): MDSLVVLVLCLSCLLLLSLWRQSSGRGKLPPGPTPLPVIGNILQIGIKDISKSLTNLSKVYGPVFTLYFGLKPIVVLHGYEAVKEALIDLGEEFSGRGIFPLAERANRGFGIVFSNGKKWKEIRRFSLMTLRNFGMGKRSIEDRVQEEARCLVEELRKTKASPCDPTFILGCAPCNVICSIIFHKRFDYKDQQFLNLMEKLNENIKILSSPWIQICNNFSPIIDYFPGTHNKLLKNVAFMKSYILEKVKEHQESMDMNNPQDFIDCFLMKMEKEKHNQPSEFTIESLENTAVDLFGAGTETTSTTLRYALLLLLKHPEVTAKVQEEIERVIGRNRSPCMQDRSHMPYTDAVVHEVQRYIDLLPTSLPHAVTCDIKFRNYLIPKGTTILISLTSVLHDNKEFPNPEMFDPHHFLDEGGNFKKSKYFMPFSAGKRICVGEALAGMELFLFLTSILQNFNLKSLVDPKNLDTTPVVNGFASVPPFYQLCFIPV

[9] = system: rat hepatocytes; experiment: Rat hepatocyte stability; type: in vitro ADME; details: 1 μM, 60 minute incubation
Protocol: as §1, §2, §3, §4, §5, §6

With C[C@]1(O)CC[C@@H](NS(=O)(=O)c2ccc(-c3ccc(F)cc3F)cc2)CC1 [ABD899, reference compound] the “% inhibition of disease” value [1] was 77%, the IC50 [2] was 7.3 µM and the “Human Clint (uL/min/million cells)” value [3] was 9 uL/min/million cells. The “Human t1/2” value [3] was 2.48 h, the IC50 [4] was 0.2 µM and the IC50 [5] was > 25 µM. The IC50 [6] was 45.3 µM, the IC50 [7] was 21.6 µM and the IC50 [8] was 3.9 µM. For the same compound, the “Rat Clint (μL/min/million cells)” value [9] was 57 μL/min/million cells and the “Rat t1/2” value [9] was 0.4 h.
